From patent US12227495B2, “Herbicidal compounds” (SYNGENTA CROP PROTECTION AG, priority 2018, dated 2025)

Key:
Format in all cases: in vivo
[1] = system: Amaranthus retoflexus (AMARE); experiment: Post-emergence herbicide test, glasshouse, percentage damage; conditions: 1000 g/ha, evaluated after 13 days
Procedure, shortened: (§1)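 Pots of standard soil were sown and kept in a glasshouse at 24/16 °C day/night, 14 h light, 65% humidity; plants were sprayed one day after sowing (pre-emergence) or after 8 days (post-emergence) at 500 g/ha unless otherwise stated. Damage was scored after 13 days on a five-point scale (5=81-100%; 1=0-20%).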

[2] = system: Echinochloa crus-galli (ECHCG); experiment: as above; conditions: 1000 g/ha, evaluated after 13 days
Procedure, shortened: as §1

[3] = system: Ipomoea hederacea (IPOHE); experiment: as above; conditions: 1000 g/ha, evaluated after 13 days
Procedure, shortened: as §1

Lolium perenne (LOLPE) [4] = experiment: as above; conditions: 1000 g/ha, evaluated after 13 days
Procedure, shortened: as §1

Setaria faberi (SETFA) [5] = experiment: as above; conditions: 1000 g/ha, evaluated after 13 days
Procedure, shortened: as §1

Solanum nigrum (SOLNI) [6] = experiment: as above; conditions: 1000 g/ha, evaluated after 13 days
Procedure, shortened: as §1

[7] = system: Amaranthus retoflexus (AMARE); experiment: Pre-emergence herbicide test, glasshouse, percentage damage; conditions: rate 1000 g/ha, evaluated after 13 days
Procedure, shortened: as §1

[8] = system: Echinochloa crus-galli (ECHCG); experiment: as above; conditions: rate 1000 g/ha, evaluated after 13 days
Procedure, shortened: as §1

[9] = system: Ipomoea hederacea (IPOHE); experiment: as above; conditions: rate 1000 g/ha, evaluated after 13 days
Procedure, shortened: as §1

Lolium perenne (LOLPE) [10] = experiment: as above; conditions: rate 1000 g/ha, evaluated after 13 days
Procedure, shortened: as §1

Setaria faberi (SETFA) [11] = experiment: as above; conditions: rate 1000 g/ha, evaluated after 13 days
Procedure, shortened: as §1

Solanum nigrum (SOLNI) [12] = experiment: as above; conditions: rate 1000 g/ha, evaluated after 13 days
Procedure, shortened: as §1

Structure (SMILES)	percentage damage caused to the plant, AMARE [1]	percentage damage caused to the plant, ECHCG [2]	percentage damage caused to the plant, IPOHE [3]	percentage damage caused to the plant, LOLPE (Lolium perenne (LOLPE) [4])	percentage damage caused to the plant, SETFA (Setaria faberi (SETFA) [5])	percentage damage caused to the plant, SOLNI (Solanum nigrum (SOLNI) [6])	Pre-emergence Test AMARE percentage damage (five point scale) [7]	Pre-emergence Test ECHCG percentage damage (five point scale) [8]	Pre-emergence Test IPOHE percentage damage (five point scale) [9]	Pre-emergence Test LOLPE percentage damage (five point scale) (Lolium perenne (LOLPE) [10])	Pre-emergence Test SETFA percentage damage (five point scale) (Setaria faberi (SETFA) [11])	Pre-emergence Test SOLNI percentage damage (five point scale) (Solanum nigrum (SOLNI) [12])
Fc1cccc(Oc2cccc(C(F)F)n2)c1-c1cc(C(F)F)no1 [Compound A55]	5 (5=81-100%)	1 (1=0-20%)	1 (1=0-20%)	1 (1=0-20%)	2 (2=21-40%)	5 (5=81-100%)	2 (2=21-40%)	1 (1=0-20%)	1 (1=0-20%)	1 (1=0-20%)	4 (4=61-80%)	2 (2=21-40%)
Fc1cc(Cl)cnc1Oc1cccc(F)c1-n1cc(C(F)(F)F)cn1 [Compound A58]	5 (5=81-100%)	4 (4=61-80%)	5 (5=81-100%)	5 (5=81-100%)	5 (5=81-100%)	5 (5=81-100%)	5 (5=81-100%)	5 (5=81-100%)	5 (5=81-100%)	5 (5=81-100%)	5 (5=81-100%)	5 (5=81-100%)
Fc1cc(Cl)cnc1Oc1cccc(Br)c1-n1cc(C(F)(F)F)cn1 [Compound A59]	5 (5=81-100%)	3 (3=41-60%)	5 (5=81-100%)	4 (4=61-80%)	5 (5=81-100%)	5 (5=81-100%)	5 (5=81-100%)	2 (2=21-40%)	2 (2=21-40%)	4 (4=61-80%)	5 (5=81-100%)	5 (5=81-100%)
Fc1cccc(Oc2cc(Cl)ccn2)c1-c1cc(C(F)F)no1 [Compound A60]	4 (4=61-80%)	1 (1=0-20%)	2 (2=21-40%)	1 (1=0-20%)	2 (2=21-40%)	4 (4=61-80%)	5 (5=81-100%)	2 (2=21-40%)	1 (1=0-20%)	1 (1=0-20%)	1 (1=0-20%)	1 (1=0-20%)
Fc1cc(Cl)cnc1Oc1ccc(Br)c(Br)c1-n1cc(C(F)(F)F)cn1 [Compound A61]	5 (5=81-100%)	1 (1=0-20%)	2 (2=21-40%)	1 (1=0-20%)	2 (2=21-40%)	5 (5=81-100%)	1 (1=0-20%)	1 (1=0-20%)	1 (1=0-20%)	1 (1=0-20%)	2 (2=21-40%)	1 (1=0-20%)
